Data: the NIST ThermoML archive (doi:10.1021/je025630q)

Experiment: compressibility factor (dimensionless); xn = mol fraction of the nth substance listed
Details: Gas, Burnett expansion method

CF [fluoromethane] + O=C=O
Details | compressibility factor
323.15 K, 1023.9 kPa, x2 = 0.619 | 0.9523
323.15 K, 1109.6 kPa, x2 = 0.189 | 0.9349
323.15 K, 1394.9 kPa, x2 = 0.378 | 0.9259
323.15 K, 1451.1 kPa, x2 = 0.791 | 0.9369
323.15 K, 1495.6 kPa, x2 = 0.619 | 0.9293
323.15 K, 1606.1 kPa, x2 = 0.189 | 0.904
323.15 K, 2009.1 kPa, x2 = 0.378 | 0.8909
323.15 K, 2102.7 kPa, x2 = 0.791 | 0.907
323.15 K, 2158.3 kPa, x2 = 0.619 | 0.8959
323.15 K, 2286.6 kPa, x2 = 0.189 | 0.8598
323.15 K, 2838.8 kPa, x2 = 0.378 | 0.8409
323.15 K, 2997.8 kPa, x2 = 0.791 | 0.8639
323.15 K, 3058.6 kPa, x2 = 0.619 | 0.8482
323.15 K, 3176.6 kPa, x2 = 0.189 | 0.798
323.15 K, 3899.6 kPa, x2 = 0.378 | 0.7717
323.15 K, 4170 kPa, x2 = 0.791 | 0.8027
323.15 K, 4217.2 kPa, x2 = 0.619 | 0.7813
323.15 K, 4257.2 kPa, x2 = 0.189 | 0.7144
323.15 K, 5138.4 kPa, x2 = 0.378 | 0.6793
323.15 K, 5587.6 kPa, x2 = 0.619 | 0.6915
323.15 K, 5596 kPa, x2 = 0.791 | 0.7197
333.15 K, 120.3 kPa, x2 = 0.392 | 0.9924
333.15 K, 128.5 kPa, x2 = 0.793 | 0.9965
333.15 K, 130.5 kPa, x2 = 0.572 | 0.9947
333.15 K, 141.4 kPa, x2 = 0.219 | 0.9909
333.15 K, 179.8 kPa, x2 = 0.392 | 0.9911
333.15 K, 191.9 kPa, x2 = 0.793 | 0.9938
333.15 K, 194.8 kPa, x2 = 0.572 | 0.9922
333.15 K, 211.2 kPa, x2 = 0.219 | 0.9886
333.15 K, 268.3 kPa, x2 = 0.392 | 0.9879
333.15 K, 286.2 kPa, x2 = 0.793 | 0.9901
333.15 K, 290.4 kPa, x2 = 0.572 | 0.9884
333.15 K, 314.8 kPa, x2 = 0.219 | 0.9843
333.15 K, 399.3 kPa, x2 = 0.392 | 0.9824
333.15 K, 426 kPa, x2 = 0.793 | 0.9846
333.15 K, 432.2 kPa, x2 = 0.572 | 0.9824
333.15 K, 467.7 kPa, x2 = 0.219 | 0.977
333.15 K, 592.5 kPa, x2 = 0.392 | 0.9737
333.15 K, 632.5 kPa, x2 = 0.793 | 0.9765
333.15 K, 641.1 kPa, x2 = 0.572 | 0.9736
333.15 K, 692.1 kPa, x2 = 0.219 | 0.9657
333.15 K, 874.8 kPa, x2 = 0.392 | 0.9605
333.15 K, 935.3 kPa, x2 = 0.793 | 0.9647
333.15 K, 946.8 kPa, x2 = 0.572 | 0.9606
333.15 K, 1017.9 kPa, x2 = 0.219 | 0.9489
333.15 K, 1282.7 kPa, x2 = 0.392 | 0.9408
333.15 K, 1375.1 kPa, x2 = 0.793 | 0.9475
333.15 K, 1389.2 kPa, x2 = 0.572 | 0.9416
333.15 K, 1484.9 kPa, x2 = 0.219 | 0.9247
333.15 K, 1863.4 kPa, x2 = 0.392 | 0.913
333.15 K, 2004.2 kPa, x2 = 0.793 | 0.9226
333.15 K, 2018.3 kPa, x2 = 0.572 | 0.9138
333.15 K, 2137.2 kPa, x2 = 0.219 | 0.8891
333.15 K, 2666.7 kPa, x2 = 0.392 | 0.8729
333.15 K, 2882 kPa, x2 = 0.793 | 0.8863
333.15 K, 2888.7 kPa, x2 = 0.572 | 0.8738
333.15 K, 3016.4 kPa, x2 = 0.219 | 0.8383
333.15 K, 3728.6 kPa, x2 = 0.392 | 0.8154
333.15 K, 4045.3 kPa, x2 = 0.572 | 0.8174
333.15 K, 4063.7 kPa, x2 = 0.793 | 0.8348
333.15 K, 4136 kPa, x2 = 0.219 | 0.7679
333.15 K, 5046.6 kPa, x2 = 0.392 | 0.7372
333.15 K, 5488.2 kPa, x2 = 0.572 | 0.7409
333.15 K, 5565.8 kPa, x2 = 0.793 | 0.7639
343.15 K, 125.5 kPa, x2 = 0.402 | 0.9971
343.15 K, 125.6 kPa, x2 = 0.787 | 0.996
343.15 K, 128.3 kPa, x2 = 0.591 | 0.9967
343.15 K, 135.4 kPa, x2 = 0.18 | 0.9953
343.15 K, 187.3 kPa, x2 = 0.402 | 0.9939
343.15 K, 187.7 kPa, x2 = 0.787 | 0.9941
343.15 K, 191.6 kPa, x2 = 0.591 | 0.9938
343.15 K, 202 kPa, x2 = 0.18 | 0.9914
343.15 K, 279.1 kPa, x2 = 0.402 | 0.9895
343.15 K, 280.1 kPa, x2 = 0.787 | 0.9911
343.15 K, 285.7 kPa, x2 = 0.591 | 0.9901
343.15 K, 300.8 kPa, x2 = 0.18 | 0.9865
343.15 K, 415.1 kPa, x2 = 0.402 | 0.9834
343.15 K, 417.3 kPa, x2 = 0.787 | 0.9864
343.15 K, 425.2 kPa, x2 = 0.591 | 0.9845
343.15 K, 447 kPa, x2 = 0.18 | 0.9794
343.15 K, 615.9 kPa, x2 = 0.402 | 0.9747
343.15 K, 620.2 kPa, x2 = 0.787 | 0.9794
343.15 K, 631.2 kPa, x2 = 0.591 | 0.9764
343.15 K, 662 kPa, x2 = 0.18 | 0.969
343.15 K, 910 kPa, x2 = 0.402 | 0.962
343.15 K, 918.6 kPa, x2 = 0.787 | 0.9691
343.15 K, 933.5 kPa, x2 = 0.591 | 0.9646
343.15 K, 975.3 kPa, x2 = 0.18 | 0.9536
343.15 K, 1336.1 kPa, x2 = 0.402 | 0.9436
343.15 K, 1353.5 kPa, x2 = 0.787 | 0.9539
343.15 K, 1372.4 kPa, x2 = 0.591 | 0.9474
343.15 K, 1426.1 kPa, x2 = 0.18 | 0.9315
343.15 K, 1943.4 kPa, x2 = 0.402 | 0.9169
343.15 K, 1979.2 kPa, x2 = 0.787 | 0.9318
343.15 K, 1999.6 kPa, x2 = 0.591 | 0.9222
343.15 K, 2061.5 kPa, x2 = 0.18 | 0.8996
343.15 K, 2787.5 kPa, x2 = 0.402 | 0.8786
343.15 K, 2861 kPa, x2 = 0.787 | 0.8998
343.15 K, 2876.3 kPa, x2 = 0.591 | 0.8861
343.15 K, 2930.2 kPa, x2 = 0.18 | 0.8542
343.15 K, 3914.8 kPa, x2 = 0.402 | 0.8243
343.15 K, 4057.2 kPa, x2 = 0.591 | 0.835
343.15 K, 4064.7 kPa, x2 = 0.18 | 0.7916
343.15 K, 4064.8 kPa, x2 = 0.787 | 0.8541
343.15 K, 5337.5 kPa, x2 = 0.402 | 0.7508
343.15 K, 5565.1 kPa, x2 = 0.591 | 0.7652
343.15 K, 5631.7 kPa, x2 = 0.787 | 0.7905
